In patent US20110082212A1, “MULTI-S[…] ANDROGEN RECEPTOR MODULATORS AND METHODS OF USE THEREOF” (priority 2002, published 2011):
Where “and” joins values, the source holds several entries; their conditions need not be identical. Equal values may be shown once.

Columns and labels:
androgen receptor = molecular target: T1, androgen receptor (Rattus norvegicus, UniProt P15207); assay: Androgen receptor binding affinities; conditions: for RBA: relative binding affinity, androgen receptor
T1 construct: from tissue; host or cells: Rat ventral prostate cytosol
T1 sequence (P15207 1-902): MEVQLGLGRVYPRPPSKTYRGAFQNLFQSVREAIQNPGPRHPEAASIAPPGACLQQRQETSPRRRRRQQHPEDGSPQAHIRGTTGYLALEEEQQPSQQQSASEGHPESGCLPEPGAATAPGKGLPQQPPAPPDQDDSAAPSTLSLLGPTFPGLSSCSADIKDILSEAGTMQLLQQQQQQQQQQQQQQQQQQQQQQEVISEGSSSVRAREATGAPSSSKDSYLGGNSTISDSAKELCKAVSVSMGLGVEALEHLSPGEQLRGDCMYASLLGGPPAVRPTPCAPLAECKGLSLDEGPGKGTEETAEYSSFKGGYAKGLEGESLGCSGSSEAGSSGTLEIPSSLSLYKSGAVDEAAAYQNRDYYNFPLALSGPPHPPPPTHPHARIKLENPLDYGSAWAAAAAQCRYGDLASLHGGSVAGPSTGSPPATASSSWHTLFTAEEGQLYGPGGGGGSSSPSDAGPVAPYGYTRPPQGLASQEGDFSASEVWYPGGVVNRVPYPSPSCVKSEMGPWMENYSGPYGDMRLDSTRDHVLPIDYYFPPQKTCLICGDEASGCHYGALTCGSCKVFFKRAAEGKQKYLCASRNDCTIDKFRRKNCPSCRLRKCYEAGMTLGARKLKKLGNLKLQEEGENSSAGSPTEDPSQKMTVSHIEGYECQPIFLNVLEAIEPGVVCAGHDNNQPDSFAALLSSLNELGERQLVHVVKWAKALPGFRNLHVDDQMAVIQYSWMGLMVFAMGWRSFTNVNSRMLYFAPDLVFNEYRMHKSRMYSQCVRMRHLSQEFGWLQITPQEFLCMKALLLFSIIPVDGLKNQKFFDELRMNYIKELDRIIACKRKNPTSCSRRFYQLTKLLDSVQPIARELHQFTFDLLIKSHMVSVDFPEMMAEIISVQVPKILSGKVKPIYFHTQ

[1] = system: castrated male rats (prostate, seminal vesicles, levator ani muscle); assay: Androgenic and anabolic activity of compounds 1 and 2 in castrated rat model (organ weights); format: in vivo, Sprague-Dawley rats; conditions: 14 days; for Seminal Vesicles weight: intact 101 ± 26.8, castrated 8.1 ± 1.8; for Levator Ani Muscle weight: intact 102 ± 8.1, castrated 40.9 ± 9.4; for Prostate weight: intact 100 ± 14.3, castrated 6.2 ± 2.5
Text: Intact Controls (not castrated, untreated) and Castrated Controls (castrated, untreated) were used as the control groups.

[2] = system: castrated male rats (ventral prostate, seminal vesicles, levator ani muscle); assay: Androgenic and anabolic activity of compound 7 in castrated male rats (organ weights, dose response); format: in vivo, SD rats; conditions: 14 days
Description: (§1) Forty-five male SD rats, weighing approximately 200 g, were randomly divided into nine groups with five rats per group. One day before treatment, groups 1 through 8 were castrated via a scrotal incision under anesthesia. Group 9 served as an intact vehicle control. Compound 7 was dissolved in a vehicle containing DMSO (5%, v/v) in PEG 300. Groups 1 through 7 received daily subcutaneous injections of compound 7 at a dose rate of 0.05, 0.1, 0.3, 0.5, 0.75, 1, and 3 mg/day, respectively. Groups 8 and 9 received vehicle. […] This dose rate was chosen based on the results from the aforementioned study in castrated rats. Rats were sacrificed after 14 days treatment. Serum samples were collected and stored at −80° C. The ventral prostate, seminal vesicles, and levator ani muscle were removed, cleared of extraneous tissue, and weighed. All organ weights were normalized to body weight and compared. The weights of the prostate and seminal vesicles were used to evaluate androgenic activity, while the levator ani muscle weight was used as a measurement of anabolic activity.

LH and FSH levels = assay: Serum LH and FSH levels in castrated rats treated with compound 7 (RIA); format: in vivo, SD rats
Description: as §1

[3] = system: intact male rats (ventral prostate, seminal vesicles, levator ani muscle); assay: Pharmacologic activity of TP and compound 7 in intact male rats (organ weights); format: in vivo; conditions: 0.5 mg/day, 14 days
Description: as §1

serum testosterone = assay: Serum testosterone concentrations in intact male rats (EIA); format: in vivo; conditions: 0.5 mg/day, 14 days, individual animals (n=5/group), detection limit 0.04 ng/mL, intact rats 4.47±1.66
Description: as §1

[4] = daily s.c., nonlinear regression of dose-response

## C[C@](O)(COc1ccc(F)c(F)c1)C(=O)Nc1ccc([N+](=O)[O-])c(C(F)(F)F)c1 [Compound 1]
Androgen receptor
  RBA: 17.6%
[1]; 1 mg/d
  levator ani muscle weight compared with intact animals: maintain the levator ani muscle weight of castrated animals in the same level as that of intact animals
[1]; 1 mg/day via osmotic pump
  Seminal Vesicles weight: 30.9 ± 5.7
  Levator Ani Muscle weight: 122.5 ± 10.4
[1]; 1 mg/day via osmotic pump, normalized to body weight
  Prostate weight: 40.3 ± 10.0
[1]; 1 mg/day, daily injection
  Prostate weight: 33.1 ± 8.5
  Seminal Vesicles weight: 23.6 ± 8.8
  Levator Ani Muscle weight: 112.8 ± 9.4

## C[C@](O)(COc1c(F)c(F)c(F)c(F)c1F)C(=O)Nc1ccc([N+](=O)[O-])c(C(F)(F)F)c1 [Compound 2]
Androgen receptor
  RBA: 13.3%
[1]; 1 mg/day, daily injection
  Prostate weight: 7.2 ± 1.4
  Seminal Vesicles weight: 7.2 ± 0.9
  Levator Ani Muscle weight: 55.83 ± 2.84

## C[C@](O)(COc1ccc(F)c(F)c1F)C(=O)Nc1ccc([N+](=O)[O-])c(C(F)(F)F)c1 [Compound 3]
Androgen receptor
  Ki: 11.3 ± 1.1 nM
  RBA: 3.1%

## C[C@](O)(COc1ccc(F)cc1F)C(=O)Nc1ccc([N+](=O)[O-])c(C(F)(F)F)c1 [Compound 5]
Androgen receptor
  Ki: 3.2 ± 0.3 nM
  RBA: 10.9%

## C[C@](O)(COc1cc(F)cc(F)c1F)C(=O)Nc1ccc([N+](=O)[O-])c(C(F)(F)F)c1 [Compound 6]
Androgen receptor
  Ki: 9.1 ± 0.6 nM
  RBA: 3.4%

## C[C@](O)(COc1ccc(Cl)c(F)c1)C(=O)Nc1ccc([N+](=O)[O-])c(C(F)(F)F)c1 [Compound 7]
Androgen receptor
  Ki: 4.9 ± 0.3 nM
  RBA: 9.1%
[2]; 3 mg/day s.c.
  organ weights (ventral prostate, seminal vesicles, levator ani muscle) restored relative to intact controls: up to 130%
[2]; [4]
  ED50 in levator ani muscle: 0.17 ± 0.04 mg/day
  ED50 in prostate: 0.77 ± 0.06 mg/day
  ED50 in seminal vesicle: 0.88 ± 0.14 mg/day
LH and FSH levels
  lowest dose reversing FSH levels back to physiologic levels: 0.5 mg/day
  lowest dose reversing LH levels back to physiologic levels: 0.3 mg/day
LH and FSH levels; 0.1 mg/day, intact control 11.2 ± 2.0, castrated control 63.4 ± 5.0
  FSH: 53.0 ± 5.1 ^I ng/mL
LH and FSH levels; 0.1 mg/day, intact control <0.2, castrated control 8.4 ± 2.5
  LH: 3.6 ± 0.8 ^I ng/mL
LH and FSH levels; 0.3 mg/day
  FSH: 26.6 ± 8.9 ^I ng/mL
  LH: <0.2 ^C ng/mL
LH and FSH levels; 0.5 mg/day
  FSH: 12.4 ± 1.1 ^C ng/mL
  LH: <0.2 ^C ng/mL
LH and FSH levels; 0.75 mg/day
  FSH: 12.8 ± 1.6 ^C ng/mL
  LH: <0.2 ^C ng/mL
[3]
  effect on levator ani muscle weight: maintained levator ani muscle weight
  effect on size of prostate and seminal vesicles: reduced the size of the prostate and seminal vesicles
Serum testosterone
  serum testosterone concentration: < 0.04 ng/mL and 0.11 ng/mL and 0.46 ng/mL

## C[C@](O)(COc1ccc(F)c(Cl)c1)C(=O)Nc1ccc([N+](=O)[O-])c(C(F)(F)F)c1 [Compound 8]
Androgen receptor
  Ki: 10.3 ± 2 nM
  RBA: 4.3%

## C[C@](O)(COc1ccc(Cl)c(Cl)c1)C(=O)Nc1ccc([N+](=O)[O-])c(C(F)(F)F)c1 [Compound 9]
Androgen receptor
  Ki: 1 ± 0.09 nM
  RBA: 20.2%

## C[C@](O)(COc1ccccc1F)C(=O)Nc1ccc([N+](=O)[O-])c(C(F)(F)F)c1 [Compound 10]
Androgen receptor
  Ki: 3.4 ± 0.34 nM
  RBA: 5.9%

## C[C@](O)(COc1c(F)cc(F)cc1F)C(=O)Nc1ccc([N+](=O)[O-])c(C(F)(F)F)c1 [Compound 11]
Androgen receptor
  Ki: 10.3 ± 2 nM

## CCC(=O)O[C@H]1CC[C@H]2[C@@H]3CCC4=CC(=O)CC[C@]4(C)[C@H]3CC[C@]12C [TP, testosterone propionate, reference compound]
[3]
  effect on growth of prostate, seminal vesicles and levator ani muscle: stimulated growth in all three organs
